Consider ten molecules from patent US5624923A, “Tricyclic diazepine vasopressin antagonists and oxytocin antagonists” (priority 1995, dated 1997).

The target of test [1] is T1, V1 Receptor Subtype in Human Platelet (Homo sapiens, UniProt P37288).
T1 construct: tissue Hudson Valley Blood Services, Westchester Medical Center, Valhalla, N.Y; host or cells: human platelets (frozen platelet rich plasma)
Kind of test: Binding to Vasopressin V1 receptor subtype in Human Platelet Membranes. The following applies: human platelet membranes. On the procedure: Radioligand Binding Experiments with Human Platelet Membranes (a) Platelet Membrane Preparation: Frozen platelet rich plasma (PRP), (Platelet Source: Hudson Valley Blood Services, Westchester Medical Center, Valhalla, N.Y.) are thawed to room temperature. The tubes containing the PRP are centrifuged at 16,000×g for 10 min. at 4° C. and the supernatant fluid discarded. […] The suspension is recentrifuged at 16,000× g for 10 min. This washing step is repeated one more time. The wash discarded and the lysed pellets homogenized in low ionic strength buffer of Tris.HCl, 5.0 mM, pH 7.5 containing 5.0 mM EDTA. The homogenate is centrifuged at 39,000× g for 10 min. The resulting pellet is resuspended in Tris. […] The final pellet is resuspended in 50.0 mM Tris. HCl buffer pH 7.4 containing 120 mM NaCl and 5.0 mM KCl to give 1.0-2.0 mg protein per ml of suspension. […] Platelet Membranes […] Then add 20 μl of [^3 H]Ligand (Manning or […] Vasopressin), to give final concentrations ranging from 0.01 to 10.0 nM. Initiate the binding by adding 80.0 μl of platelet suspension (approx. 100 μg protein). Mix all reagents by pipetting the mixture up and down a few times. Non specific binding is measured in the presence of 1.0 μM of unlabeled ligand (Manning or […] Vasopressin). Let the mixture stand undisturbed at room temperature for ninety (90) min. Upon this time, rapidly filter off the incubate under vacuum suction over GF/B filters, using a Brandel Harvester. Determine the radioactivity caught on the filter disks by the addition of liquid scintillant and counting in a liquid scintillator.

Test [2] deals with T2, Human V2 Vasopressin Receptor (Homo sapiens, UniProt P30518).
T2 construct: expressed in transfected cells; host or cells: mouse fibroblast cell line LV-2
T2 sequence (P30518 whole entry): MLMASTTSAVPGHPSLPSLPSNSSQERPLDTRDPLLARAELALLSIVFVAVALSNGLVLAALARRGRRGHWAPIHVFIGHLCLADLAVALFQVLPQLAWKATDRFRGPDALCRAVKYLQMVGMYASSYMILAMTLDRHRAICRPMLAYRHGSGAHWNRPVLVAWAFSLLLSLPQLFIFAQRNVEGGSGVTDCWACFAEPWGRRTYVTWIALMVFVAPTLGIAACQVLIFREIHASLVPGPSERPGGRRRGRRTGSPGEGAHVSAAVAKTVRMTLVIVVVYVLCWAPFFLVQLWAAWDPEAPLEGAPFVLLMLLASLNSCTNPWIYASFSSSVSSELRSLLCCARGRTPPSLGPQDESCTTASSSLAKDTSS
Kind of test: Binding to Membranes of Mouse Fibroblast Cell Line (LV-2) Transfected with the cDNA Expressing the Human V2 Vasopressin Receptor. The conditions noted are these: LV-2 cell membranes, human V2; read-out: V2 IC50 (**). On the procedure: Binding to Membranes of Mouse Fibroblast Cell Line (LV-2) Transfected with the cDNA Expressing the Human V2 Vasopressin Receptor
Flasks of 175 ml capacity, containing attached cells grown to confluence, are cleared of culture medium by aspiration. The flasks containing the attached cells are rinsed with 2×5 ml of phosphate buffered saline (PBS) and the liquid aspirated off each time. Finally, 5 ml of an enzyme free dissociation Hank's based solution (Specialty Media, Inc., Lafayette, N.J.) is added and the flasks are left undisturbed for 2 min. The content of all flasks is. poured into a centrifuge tube and the cells pelleted at 300× g for 15 min. The Hank's based solution is aspirated off and the cells homogenized with a polytron at setting #6 for 10 sec in 10.0 mM Tris.HCl buffer, pH 7.4 containing 0.25M sucrose and 1.0 mM EDTA. The homogenate is centrifuged at 1500× g for 10 min to remove ghost membranes. The supernatant fluid is centrifuged at 100,000× g for 60 min. to pellet the receptor protein. Upon completion, the pellet is resuspended in a small volume of 50.0 mM Tris. HCl buffer, pH 7.4. The protein content is determined by the Lowry method and the receptor membranes are suspended in 50.0 mM Tris.HCl buffer containing 0.1 mM phenylmethylsulfonylfluoride (PMSF) and 0.2% bovine serum albumin (BSA) to give 2.5 mg receptor protein per ml of suspension.
Arginine^8, vasopressin (S.A. 75.0 Ci/mmole) at 0.8 nM and the reaction initiated by the addition of 80.0 μl of tissue membranes (200.0 μg tissue protein). The plates are left undisturbed on the bench top for 120 min to reach equilibrium. Non specific binding is assessed in the presence of 1.0 μM of unlabeled ligand, added in 20 μl volume. For test compounds, these are solubilized in 50% dimethylsulfoxide (DMSO) and added in 20.0 μl volume to a final incubation volume of 200 μl. Upon completion of binding, the content of each well is filtered off, using a Brandel® cell Harvester (Gaithersburg, Md.). The radioactivity trapped on the filter disk by the ligand-receptor complex is assessed by liquid scintillation counting in a Packard LS Counter, with an efficiency of 65% for tritium. The data are analyzed for IC50 values by the LUNDON-2 program for competition (LUNDON SOFTWARE, Ohio).

The test system of test [3] is Vasopressin V2. The test can be described thus: Vasopressin V2 Antagonist Activity in Conscious Hydrated Rats. The class given is in vivo, rat. The following applies: 10 mg/kg orally, AVP 0.4 μg/kg i.p. An outline of the steps:
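Four-hour urine output, osmolality and electrolytes (Na+, K+, Cl−) recorded in water-loaded rats (30 mL/kg deionized water orally) given AVP i.p. at 0.4 μg/kg. Test compounds were given orally at 0.1–100 mg/kg 1 h before AVP; 2–4 rats per compound.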

Test [4] concerns the target T3, oxytocin receptors (Rattus norvegicus, UniProt P70536).
T3 construct: The uteri are dissected out, cleaned of fat and connective tissues; from tissue; host or cells: uterus of DES-treated female Sprague-Dawley rats
T3 sequence (P70536 1-388): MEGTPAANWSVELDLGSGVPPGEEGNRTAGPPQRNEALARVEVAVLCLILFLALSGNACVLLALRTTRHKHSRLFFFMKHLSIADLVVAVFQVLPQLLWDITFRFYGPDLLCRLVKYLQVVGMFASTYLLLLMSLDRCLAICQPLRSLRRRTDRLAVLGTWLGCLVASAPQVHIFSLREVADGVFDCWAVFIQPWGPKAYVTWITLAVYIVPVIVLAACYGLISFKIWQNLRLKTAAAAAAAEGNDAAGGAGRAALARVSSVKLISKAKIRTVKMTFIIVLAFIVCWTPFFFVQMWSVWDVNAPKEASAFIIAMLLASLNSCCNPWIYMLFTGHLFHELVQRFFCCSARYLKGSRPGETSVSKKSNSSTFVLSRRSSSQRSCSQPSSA
The test can be described thus: Oxytocin Receptor Binding. The following applies: for IC50: 1.0 nM [3H]oxytocin. The method in brief:
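IC50 is the concentration displacing 50% of 1.0 nM [3H]OT, incubated 60 min at 22 °C in pH 7.4 Tris/MgCl2 buffer plus protease inhibitors, then filtered. Receptor source: uterine membranes from rats given 0.3 mg/kg DES i.m. 18 h earlier. 1.0 uM cold OT defined non-specific binding.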

T1 sequence (P37288 whole entry): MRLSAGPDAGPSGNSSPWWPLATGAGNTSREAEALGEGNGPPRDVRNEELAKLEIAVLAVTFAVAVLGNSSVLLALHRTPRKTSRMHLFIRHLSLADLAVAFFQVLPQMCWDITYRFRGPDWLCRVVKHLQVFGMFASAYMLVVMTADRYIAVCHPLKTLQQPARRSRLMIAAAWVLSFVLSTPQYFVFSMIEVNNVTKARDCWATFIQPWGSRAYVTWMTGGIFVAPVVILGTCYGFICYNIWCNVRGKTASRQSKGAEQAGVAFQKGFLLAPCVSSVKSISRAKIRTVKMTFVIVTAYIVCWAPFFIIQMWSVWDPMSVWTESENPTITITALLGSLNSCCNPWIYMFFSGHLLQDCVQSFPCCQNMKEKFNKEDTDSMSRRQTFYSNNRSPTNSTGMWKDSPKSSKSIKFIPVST

Turning to `O=C(Nc1ccc(C(=O)N2Cc3cccn3Cc3ccccc32)c(Cl)c1)c1c(Cl)cccc1Cl` [Example 529, N-(4-(5H-pyrrolo[2,1-c][1,4]benzodiazepin-10(11H-)-ylcarbonyl]-3-chlorophenyl]-2,6-dichlorobenzamide], the IC50 was 990 nM in test [1], 2 nM in test [2] and 450 nM in test [4]. In test [3], the Osmolality is listed as 569 mOsm/kg. Besides, the “Urine Volume” value in test [3] is 10.5 ml/4 hrs. In addition, the inhibition at 10 µM in test [4] ([3H]oxytocin) stood at 92%.
Turning to `CSc1ccccc1C(=O)Nc1ccc(C(=O)N2Cc3cccn3Cc3ccccc32)c(Cl)c1` [Example 524, N-[4-(5H-pyrrolo[2,1-c][1,4]benzodiazepin-10(11H)-ylcarbonyl)-3-chlorophenyl]-2-(thiomethylbenzamide)], the results for the IC50 in test [1], in test [2] and in test [4] were 170 nM, 1.2 nM and 1800 nM, respectively. Moreover, the Osmolality in test [3] stood at 528 mOsm/kg. Moreover, in test [3], the “Urine Volume” value was 10 ml/4 hrs. Besides, at 10 µM the inhibition in test [4] ([3H]oxytocin) was 84%.
On to `Cc1ccc(F)cc1C(=O)Nc1ccc(C(=O)N2Cc3cccn3Cc3ccccc32)cc1Cl` [Example 547, N-[4-(5H-pyrrolo[2,1-c][1,4]benzodiazepin-10(11H)-ylcarbonyl)-2-chlorophenyl]-5-fluoro-2-methylbenzamide], for which the IC50 came to 16 nM in test [1], 4 nM in test [2] and 260 nM in test [4]. The same molecule displayed an inhibition at 5 µM in test [4] (dose 5 μM, [3H]oxytocin) of 97%.
As for `O=C(Nc1ccc(C(=O)N2Cc3cccn3Cc3ccccc32)c(Cl)c1)c1cccc(F)c1` [Example 538, N-[4-(5H-pyrrolo[2,1-c][1,4]benzodiazepin-10(11H)-ylcarbonyl)-3-chlorophenyl]-3-fluorobenzamide], the concentration for half-maximal inhibition (IC50) stood at 52 nM in test [1], 1 nM in test [2] and 900 nM in test [4]. In test [4] ([3H]oxytocin), this molecule gave an inhibition at 10 µM of 90%.
Consider `O=C(Nc1ccc(C(=O)N2Cc3ccc(Cl)n3Cc3ccccc32)cc1)c1ccc(Cl)cc1Cl` [Example 54, N-[4-(3-Chloro-5H-pyrrolo[2,1-c]-[1,4]benzodiazepin-10(11H)yl-carbonyl)phenyl]-2,4-dichloro-benzamide], for which the figures for the IC50 in test [1], in test [2] and in test [4] were 310 nM, 7 nM and 160 nM, respectively. The molecule also came in with an Osmolality in test [3] of 1275 mOsm/kg. Besides, the “Urine Volume” value in test [3] is on record as 5 ml/4 hrs. Moreover, the inhibition at 10 µM in test [4] ([3H]oxytocin) was 94%.
Take `O=C(Nc1ccc(C(=O)N2Cc3cccn3Cc3ccccc32)c(Cl)c1)c1ccccc1Cl` [Example 526, N-[4-(5H-pyrrolo[2,1-c][1,4]benzodiazepin-10(11H)-ylcarbonyl]-3-chlorophenyl]-2-chlorobenzamide]: the IC50 was found to be 50 nM in test [1], 3.3 nM in test [2] and 470 nM in test [4]. Further, in test [3], the Osmolality is reported as 455 mOsm/kg. Further, the “Urine Volume” value in test [3] came out at 17.8 ml/4 hrs. This molecule showed an inhibition at 10 µM in test [4] ([3H]oxytocin) of 97%.
Consider `O=C(Nc1ccc(C(=O)N2CCc3cccn3-c3ccccc32)c(Cl)c1)c1ccc(Cl)cc1Cl` [Example 609, N-[4-[(6,7-Dihydro-5H-pyrrolo[1,2-a]-[1,5]benzodiazepin-5-yl)carbonyl]-3-chlorophenyl]-2,4-dichlorobenzamide], for which the 50% inhibitory concentration (IC50) in test [1] came out at 2400 nM; in test [2], 21 nM; in test [4], 2700 nM. This molecule gave an inhibition at 10 µM in test [4] ([3H]oxytocin) of 66%.
Consider `Cc1ccccc1C(=O)Nc1ccc(C(=O)N2Cc3ccnn3Cc3ccccc32)c(Cl)c1` [Example 519, N-[4-(4H-Pyrazolo[5,1-c][1,4]benzodiazepin-5(10H)-ylcarbonyl)-3-chlorophenyl]-2-methylbenzamide], for which the half-inhibitory concentration (IC50) in test [1] came out at 120 nM; in test [2] it was 3.2 nM; in test [4] it was 480 nM. The molecule also displayed an Osmolality in test [3] of 399 mOsm/kg. For the same molecule, in test [3], the “Urine Volume” value amounted to 19.9 ml/4 hrs. Moreover, the inhibition at 10 µM in test [4] ([3H]oxytocin) was 97%.
For the molecule `Cc1c(F)cccc1C(=O)Nc1ccc(C(=O)N2Cc3cccn3Cc3ccccc32)cc1Cl` [Example 546, N-[4-(5H-pyrrolo[2,1-c][1,4]benzodiazepin-10(11H)-ylcarbonyl)-2-chlorophenyl]-3-fluoro-2-methylbenzamide], the IC50 in test [1] came out at 66 nM; in test [2], 73 nM; in test [4], 990 nM. Also, in test [4] ([3H]oxytocin), the inhibition at 10 µM amounted to 91%.
In the case of `O=C(Nc1ccc(C(=O)N2Cc3ccnn3Cc3ccccc32)c(Cl)c1)c1ccc(Cl)cc1Cl` [Example 520, N-[4-(4H-Pyrazolo[5,1-c][1,4]benzodiazepin-5(10H)-ylcarbonyl)-3-chlorophenyl]-2,4-dichlorobenzamide], the IC50 in test [1] was 850 nM; in test [2] it was 4.4 nM; in test [4], 2200 nM. In test [3], this molecule showed an Osmolality of 394 mOsm/kg. In test [3], the “Urine Volume” value is reported as 18.5 ml/4 hrs. The inhibition at 10 µM in test [4] ([3H]oxytocin) amounted to 79%.
